Measurements reported in the supplement of paper PMC10627819.

Legend:
B. subtilis 168 [1] = test: fitness (endpoint OD595 vs no drug) (fraction); higher = more growth
Outline: (§1)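 Fitness is computed from the optical density at which cultures reach stationary phase, divided by the robust mean of no-drug control wells. Any value above 1 is set to 1. Cultures started at OD595 0.01 in 384-well plates with TSB, LB Lennox or CY at 37 °C, and OD595 was read every 30 min for 14 h against a first-reading background.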

S. pneumoniae D39V [2] = test: as above
Outline: as §1

B. subtilis 168 [3] = test: Bliss interaction score (quartile over a dose matrix) (fitness difference); higher = more antagonism (negative = synergy)
Outline: (§2)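 The Bliss score is observed fitness minus expected fitness, where the expected value is the product of single-drug fitness values inferred from combination data. Fitness is OD595 at entry into stationary phase normalised to the plate's robust no-drug mean and capped at 1. Scores are reported as quartiles spanning technical, biological and donor/recipient replicates.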

S. aureus DSM 20231 = test: as above
Outline: as §2

S. aureus Newman [4] = test: as above
Outline: as §2

S. pneumoniae D39V [5] = test: as above
Outline: as §2

S. aureus Newman [6] = test: fitness (endpoint OD595 vs no drug) (fraction); higher = more growth
Outline: as §1
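Throughout, for Bliss interaction score (quartile over a dose matrix): first quartile when negative (synergy) and third quartile when positive (antagonism).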
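Throughout, for fitness (endpoint OD595 vs no drug): OD595 on entry to stationary phase over no-drug wells; at most 1.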

CC1=C(C(=O)O)N2C(=O)[C@@H](NC(=O)[C@H](N)c3ccccc3)[C@H]2SC1 [Cephalexin] + CCC[C@@H]1C[C@@H](C(=O)N[C@@H]([C@H]2O[C@H](SC)[C@H](O)[C@@H](O)[C@H]2O)[C@@H](C)O)N(C)C1 [Lincomycin]
Conditions	fitness
B. subtilis 168 [1], first compound 0.125 µg/mL, partner 0.1 µg/mL	0.901
B. subtilis 168 [1], first compound 0.125 µg/mL, partner 0.2 µg/mL	0.876
B. subtilis 168 [1], first compound 0.125 µg/mL, partner 0.4 µg/mL	0.852
B. subtilis 168 [1], first compound 0.25 µg/mL, partner 0.1 µg/mL	0.941
B. subtilis 168 [1], first compound 0.25 µg/mL, partner 0.2 µg/mL	0.937
B. subtilis 168 [1], first compound 0.25 µg/mL, partner 0.4 µg/mL	0.913
B. subtilis 168 [1], first compound 0.5 µg/mL, partner 0.1 µg/mL	0.939
B. subtilis 168 [1], first compound 0.5 µg/mL, partner 0.2 µg/mL	0.901
B. subtilis 168 [1], first compound 0.5 µg/mL, partner 0.4 µg/mL	0.852
S. pneumoniae D39V [2], first compound 1 µg/mL, partner 0.215 µg/mL	0.832
S. pneumoniae D39V [2], first compound 1 µg/mL, partner 0.43 µg/mL	0.716
S. pneumoniae D39V [2], first compound 1 µg/mL, partner 0.86 µg/mL	0.403
S. pneumoniae D39V [2], first compound 2 µg/mL, partner 0.43 µg/mL	0.373
S. pneumoniae D39V [2], first compound 2 µg/mL, partner 0.86 µg/mL	0.176
S. pneumoniae D39V [2], first compound 4 µg/mL, partner 0.215 µg/mL	0.0258
S. pneumoniae D39V [2], first compound 4 µg/mL, partner 0.43 µg/mL	0.0283
S. pneumoniae D39V [2], first compound 4 µg/mL, partner 0.86 µg/mL	0.0358

fitness, one replicate
Conditions	partner 0.1 µg/mL	partner 0.2 µg/mL	partner 0.4 µg/mL	partner 0.8 µg/mL
B. subtilis 168 [1], first compound 1 µg/mL	≥ 1	≥ 1	≥ 1	–
S. pneumoniae D39V [2], first compound 0.125 µg/mL	–	0.722	0.663	0.206
S. pneumoniae D39V [2], first compound 0.25 µg/mL	–	0.759	0.643	0.304
S. pneumoniae D39V [2], first compound 0.5 µg/mL	–	0.786	0.702	0.288

Conditions	Bliss interaction score
B. subtilis 168 [3]	-0.0209
S. aureus DSM 20231	0.101
S. aureus Newman [4]	0.0797
S. pneumoniae D39V [5]	0.159

CC1=C(C(=O)O)N2C(=O)[C@@H](NC(=O)[C@H](N)c3ccccc3)[C@H]2SC1 [Cephalexin] + CN(C)C(=O)C(CCN1CCC(O)(c2ccc(Cl)cc2)CC1)(c1ccccc1)c1ccccc1 [Loperamide]
Conditions	fitness
B. subtilis 168 [1], first compound 0.125 µg/mL, partner 25 µg/mL	0.819
B. subtilis 168 [1], first compound 0.125 µg/mL, partner 50 µg/mL	0.0465
B. subtilis 168 [1], first compound 0.125 µg/mL, partner 100 µg/mL	0.0315
B. subtilis 168 [1], first compound 0.25 µg/mL, partner 25 µg/mL	0.803
B. subtilis 168 [1], first compound 0.25 µg/mL, partner 50 µg/mL	0.039
B. subtilis 168 [1], first compound 0.25 µg/mL, partner 100 µg/mL	0.025
B. subtilis 168 [1], first compound 0.5 µg/mL, partner 25 µg/mL	0.712
B. subtilis 168 [1], first compound 0.5 µg/mL, partner 50 µg/mL	0.0372
B. subtilis 168 [1], first compound 0.5 µg/mL, partner 100 µg/mL	0.0277
S. pneumoniae D39V [2], first compound 2 µg/mL, partner 34.28 µg/mL	0.165
S. pneumoniae D39V [2], first compound 4 µg/mL, partner 17.14 µg/mL	0.0474
S. pneumoniae D39V [2], first compound 4 µg/mL, partner 34.28 µg/mL	0.0181

fitness, S. pneumoniae D39V [2], one replicate
Conditions	first compound 0.125 µg/mL	first compound 0.25 µg/mL	first compound 0.5 µg/mL	first compound 1 µg/mL	first compound 2 µg/mL	first compound 4 µg/mL
partner 20 µg/mL	≥ 1	≥ 1	≥ 1	–	–	–
partner 40 µg/mL	≥ 1	0.995	0.99	–	–	–
partner 68.57 µg/mL	–	–	–	0.53	0.15	0.0031
partner 80 µg/mL	0.753	0.784	0.612	–	–	–

Conditions	Bliss interaction score
B. subtilis 168 [3]	-0.0893
S. aureus DSM 20231	0.116
S. aureus Newman [4]	0.0814
S. pneumoniae D39V [5]	-0.129

CC1=C(C(=O)O)N2C(=O)[C@@H](NC(=O)[C@H](N)c3ccccc3)[C@H]2SC1 [Cephalexin] + CN[C@H](CC(C)C)C(=O)N[C@H]1C(=O)N[C@@H](CC(N)=O)C(=O)N[C@H]2C(=O)N[C@H]3C(=O)N[C@H](C(=O)N[C@H](C(=O)O)c4cc(O)cc(O)c4-c4cc3ccc4O)[C@H](O)c3ccc(c(Cl)c3)Oc3cc2cc(c3O[C@@H]2O[C@H](CO)[C@@H](O)[C@H](O)[C@H]2O[C@H]2C[C@](C)(N)[C@H](O)[C@H](C)O2)Oc2ccc(cc2Cl)[C@H]1O [Vancomycin]
fitness
Conditions	first compound 0.25 µg/mL	first compound 0.5 µg/mL	first compound 1 µg/mL	first compound 2 µg/mL	first compound 4 µg/mL
S. aureus Newman [6], partner 0.1875 µg/mL	≥ 1	0.997	≥ 1	–	–
S. aureus Newman [6], partner 0.375 µg/mL	0.997	≥ 1	≥ 1	–	–
S. aureus Newman [6], partner 0.75 µg/mL	≥ 1	≥ 1	≥ 1	–	–
S. pneumoniae D39V [2], partner 0.03125 µg/mL	–	–	–	0.0634	0.0468
S. pneumoniae D39V [2], partner 0.0625 µg/mL	–	–	–	0.0312	0.0227
S. pneumoniae D39V [2], partner 0.125 µg/mL	–	–	0.282	0.0467	0.0467

fitness, S. pneumoniae D39V [2], one replicate
Conditions	first compound 0.125 µg/mL	first compound 0.25 µg/mL	first compound 0.5 µg/mL
partner 0.125 µg/mL	0.824	0.936	≥ 1
partner 0.25 µg/mL	0.165	0.383	0.428
partner 0.5 µg/mL	0.0735	0.0702	0.105

Conditions	Bliss interaction score
B. subtilis 168 [3]	-0.0548
S. aureus DSM 20231	0.0385
S. aureus Newman [4]	0.0402
S. pneumoniae D39V [5]	-0.207

CC1=C(C(=O)O)N2C(=O)[C@@H](NC(=O)[C@H](N)c3ccccc3)[C@H]2SC1 [Cephalexin] + Cn1nnc(-c2ccc(-c3ccc(N4C[C@H](CO)OC4=O)cc3F)cn2)n1 [Tedizolid]
fitness
Conditions	first compound 0.25 µg/mL	first compound 0.5 µg/mL	first compound 1 µg/mL	first compound 2 µg/mL	first compound 4 µg/mL
S. aureus Newman [6], partner 0.0625 µg/mL	0.965	0.999	0.967	–	–
S. aureus Newman [6], partner 0.125 µg/mL	0.914	0.901	0.924	–	–
S. pneumoniae D39V [2], partner 0.03125 µg/mL	–	–	0.919	0.391	0.0118
S. pneumoniae D39V [2], partner 0.0625 µg/mL	–	–	0.928	0.53	0.113
S. pneumoniae D39V [2], partner 0.125 µg/mL	–	–	0.778	0.529	0.115

fitness, S. pneumoniae D39V [2], one replicate
Conditions	first compound 0.125 µg/mL	first compound 0.25 µg/mL	first compound 0.5 µg/mL
partner 0.125 µg/mL	0.857	0.887	0.943
partner 0.25 µg/mL	0.762	0.775	0.793
partner 0.5 µg/mL	0.282	0.332	0.359

Conditions	Bliss interaction score
B. subtilis 168 [3]	-0.0471
S. aureus DSM 20231	-0.121
S. aureus Newman [4]	0.0857
S. pneumoniae D39V [5]	0.304
